According to US20090312280A1:

Key:
HT29 (Colon) = test: cell survival / MTT combination cytotoxicity; format: cell-based, human; conditions: HT29; IC50 cytotoxic agent alone / IC50 combination; Compound 1 at 8x EC50 (360 nM)
Colo205 (Colon) = test: cell survival / MTT combination cytotoxicity; format: cell-based, human; conditions: Colo205; IC50 cytotoxic agent alone / IC50 combination; Compound 1 at 8x EC50 (360 nM)
PC-3 (Prostate) = test: cell survival / MTT combination cytotoxicity; format: cell-based, human; conditions: PC-3; IC50 cytotoxic agent alone / IC50 combination; Compound 1 at 8x EC50 (360 nM)
MDA-MB-231 (Breast) = test: cell survival / MTT combination cytotoxicity; format: cell-based, human; conditions: IC50 cytotoxic agent alone / IC50 combination, Compound 1 at 8x EC50 (360 nM)
K562 (Leukemia) = test: cell survival / MTT combination cytotoxicity; format: cell-based, human; conditions: IC50 cytotoxic agent alone / IC50 combination, Compound 1 at 4x EC50 (180 nM)
[1] = system: Colo205 human colon carcinoma xenografts; test: in vivo chemopotentiation, Colo205 xenograft; set-up: species or system mice
Method: Experiments 1 to 39 were conducted in mice xenografts. Experiments 40-42 were conducted in rat xenografts. Specifically, irinotecan combination studies were conducted in HT29 and Colo205. Gemcitabine combination studies were conducted in Colo205. Docetaxel combination studies were conducted in Colo205.
Gemcitabine and irinotecan are DNA directed cytotoxics known to induce checkpoint activation and subsequent S/G2M-phase arrest. […] Docetaxel is an antimitotics where recent discoveries describe a novel function for CHK1 in the mitotic checkpoint.

[2] = Exp 1, gemcitabine 120 mg/kg IP Q3d×4, Compound 1 0 mg/kg
[3] = Exp 2, gemcitabine 120 mg/kg IP Q3d×4 + Compound 1 4 mg/kg IP Q3d×4 24 h after
[4] = Exp 3, gemcitabine 120 mg/kg IP Q3d×4 + Compound 1 8 mg/kg IP Q3d×4 24 h after
[5] = Exp 4, gemcitabine 120 mg/kg IP Q3d×4 + Compound 1 12 mg/kg IP Q3d×4 24 h after
[6] = Exp 5, gemcitabine 120 mg/kg IP Q3d×4 + Compound 1 20 mg/kg IP Q3d×4 24 h after
[7] = Exp 6, gemcitabine 120 mg/kg IP Q3d×4 + Compound 1 24 mg/kg IP Q3d×4 24 h after
[8] = Exp 7, gemcitabine 120 mg/kg IP Q3d×4 + Compound 1 40 mg/kg IP Q3d×4 24 h after

Nc1ccn([C@@H]2O[C@H](CO)[C@@H](O)C2(F)F)c(=O)n1 [Gemcitabine]
PF50 (Potentiation Factor50) (HT29 (Colon)): 9
PF50 (Potentiation Factor50) (Colo205 (Colon)): 11.3
PF50 (Potentiation Factor50) (PC-3 (Prostate)): 12.2
PF50 (Potentiation Factor50) (MDA-MB-231 (Breast)): 3.6
PF50 (Potentiation Factor50) (K562 (Leukemia)): 5.6
% TGI [1, 2]: 58%
Growth delay [1, 2]: 8 days
% TGI [1, 3]: 58%
Growth delay [1, 3]: 8 days
% TGI [1, 4]: 63%
% poten TGI [1, 4]: 12%
Growth delay [1, 4]: 8 days
% TGI [1, 5]: 68%
% poten TGI [1, 5]: 23%
Growth delay [1, 5]: 8.5 days
% TGI [1, 6]: 76%
% TTP [1, 6]: 17%
% poten TGI [1, 6]: 43%
Growth delay [1, 6]: 12 days
% TGI [1, 7]: 81%
% TTP [1, 7]: 17%
% poten TGI [1, 7]: 55%
Growth delay [1, 7]: 12 days
% TGI [1, 8]: 90%
% TTP [1, 8]: 50%
% poten TGI [1, 8]: 75%
Growth delay [1, 8]: 20 days
